In article PMC10050199 (Sensors and Actuators. B, Chemical, 2023):

Legend:
[1] = target: T1, SARS-CoV-2 SP (Severe acute respiratory syndrome coronavirus 2, UniProt P0DTC2)
[2] = test system: SARS-CoV-2 S1; assay type: binding
[3] = target: T1, SARS-CoV-2 SP; remark: listed apart in the source

Sequence | frequency of peptide sequence among sequenced phage monoclonals [1] | binding to SARS-CoV-2 S1 [2] | binding to SARS-CoV-2 SP (absorbance) [3]
WNLDLSQWLPPM [P1] | 16/30 |  | 
WNLDLSQWLPPM [P1-phage] |  | may also bind to SARS-CoV-2 S1 loosely | higher absorbance value and was significantly higher than that of the control
